“Also recorded” adds a separate entry of the source.
Legend:
JMT enzyme (GST-JMT) = molecular target: T1, JMT enzyme (GST-JMT) (Arabidopsis thaliana, UniProt Q9AR07); test: Substrate specificity of fusion enzyme protein GST-JMT with SAM / [14C]SAM; type: biochemical; conditions: reaction with JA defined to be 100%
T1 construct: it could be noted that this selected cDNA clone is a full-length cDNA clone; made in house; host or cells: E. coli BL21 (pGEX-2T, plasmid pGST-JMT)
T1 sequence (Q9AR07 1-389): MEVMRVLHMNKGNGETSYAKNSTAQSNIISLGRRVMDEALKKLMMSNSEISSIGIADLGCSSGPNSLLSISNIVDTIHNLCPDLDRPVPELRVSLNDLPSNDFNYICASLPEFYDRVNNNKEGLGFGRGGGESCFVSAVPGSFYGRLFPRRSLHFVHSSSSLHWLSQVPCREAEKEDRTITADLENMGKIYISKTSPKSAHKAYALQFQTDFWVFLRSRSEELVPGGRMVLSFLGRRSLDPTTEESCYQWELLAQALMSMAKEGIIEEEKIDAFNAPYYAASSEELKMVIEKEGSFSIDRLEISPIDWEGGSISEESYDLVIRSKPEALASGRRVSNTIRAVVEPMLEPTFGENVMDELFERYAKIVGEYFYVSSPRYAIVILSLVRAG

[1] = test system: pathogens belonging to Phytium genus; conditions: treatment at the level of 130 μM; cited from earlier work
[2] = molecular target: T2, jasmonic acid carboxyl methyltransferase (Arabidopsis thaliana, UniProt Q9AR07); test: Kinetic parameters of recombinant JMT protein (Lineweaver-Burk plot); type: biochemical; conditions: named substance as substrate of recombinant JMT; for Km: SAM and JA as substrates
T2 construct: it could be noted that this selected cDNA clone is a full-length cDNA clone; made in house; host or cells: E. coli BL21 (pGEX-2T, plasmid pGST-JMT)
T2 sequence (Q9AR07 1-389): T1 sequence (Q9AR07 1-389)

Compound | reactivity as methyl acceptor substrate of JMT enzyme (JMT enzyme (GST-JMT)) | effect on the growth of pathogen [1] | Kcat [2] | Vm [2] | Km [2]
O=C(O)c1ccccc1O [SA, salicylic acid] | substantially not react; also recorded: substantially not proceeded | – | – | – | –
O=C(O)c1ccccc1 [BA, benzoic acid] | substantially not react; also recorded: substantially not proceeded | – | – | – | –
jasmonic acid [(±)JA] | high reactivity | no effect | 15 s⁻¹ | 30 nmol/min | 38.5 µM
S-adenosyl methionine [SAM] | – | – | 70 s⁻¹ | 84 nmol/min | 6.3 µM

Source: US20030064895A1, “Genes for s-adenosyl l-methionine: jasmonic acid carboxyl methyltransferase and a method for the development of pathogen-and stress-resistant plants using the genes” (priority 2000, published 2003)
